Results: patent publication US20230277612A1, “SAPONIN DERIVATIVES FOR USE IN MEDICINE” (priority 2020, published 2023)
“And” between values parts separate entries of the source, which are not always exact repeats. Identical values can stand only once. Like-named read-outs stand apart in the source and are kept apart here.

What was measured:
[1] = Critical micellar concentration (CMC) by ANS fluorescence; format: physicochemical; settings: Table A7; determined in PBS
Description: The critical micellar concentration (CMC) of saponins derived from Saponaria officinalis (SO) (Table A7) and derived from Quillaja saponaria (QS) (Table A8, and Table A9) was determined by the method of DeVendittis et al. (A fluorimetric method for the estimation of the critical micelle concentration of surfactants, Analytical Biochemistry, Volume 115, Issue 2, August 1981, Pages 278-286) as follows:
(§1) The emission spectrum of 8-Anilinonaphthalene-1-sulfonic acid (ANS) in either purified water (MQ) or PBS (Dulbecco's PBS+/+) was determined at dry weight concentrations of saponins ranging from 1 to 1400 pM to cover the range below and above the CMC. Above the CMC, the fluorescence yield of ANS increases and the wavelength of maximum emission decreases due to portioning of the fluorescent dye into micelles. Fluorescence yields were recorded on a Fluoroskan Ascent FL (Thermo Scientific) at an excitation wavelength of 355 nm, and an emission wavelength of 460 nm. 6 μg at a concentration of 75.86 pM of ANS were used per sample and measurement.
The critical micellar concentration (CMC) of saponins was determined by the method of DeVendittis et al. (A fluorimetric method for the estimation of the critical micelle concentration of surfactants, Analytical Biochemistry, Volume 115, Issue 2, August 1981, Pages 278-286) as follows:
as §1, with “μM” for “pM”

HeLa cells = experiment: cells; format: cell-based
Description: (§2) (FIGS. 66a and 66B). Next toxicity was determined, for this the modified saponins were titrated on HeLa and A431 cells. […] Next toxicity was determined, for this the modified saponins were titrated on HeLa and A431 cells.

A431 cells = experiment: cells; format: cell-based
Description: as §2

[2] = system: EGFR expressing cells (HeLa); format: cell-based
human red blood cells = experiment: cells; format: cell-based
Description: Red blood cells (RBCs) were isolated from a buffy coat using a Ficoll gradient. The obtained RBC pellet (˜4-5 ml) was washed 2× with 50 ml DPBS (without Ca^2+/Mg^2+, PAN-Biotech GmbH). Cells were pelleted by centrifugation for 10 min, 800×g at RT. RBC were counted and resuspended at 500.000.000 c/ml in DPBS (without Ca^2+/Mg^2+), based on total cell count.
(§3) Saponin dilutions were prepared in DPBS (with Ca^2+/Mg^2+, PAN-Biotech GmbH), at 1.11× final strength. For positive lysis control a 0.02% Triton-X100 solution was prepared in DPBS^+/+. Of all compound solutions 135 μl was dispensed/well in a 96 well V-bottom plate. To this 15 μl RBC suspension was added and mixed shortly (10 sec-600 rpm). The plate was incubated 30 min at RT, with gentle agitation. Afterwards the plate was spun for 10 min at 800×g to pellet the RBC and 100-120 μl supernatant was transferred to a standard 96 wp (96 well-plate).
as §3, with “DPBS+/+.” for “DPBS^+/+.”

[3] = system: EGFR expressing cells (A431); format: cell-based
[4] = Table A5, saponin alone, read-out: IC50 nM (Toxicity)
[5] = Table A6, saponin alone, read-out: IC50 nM (Toxicity)
[6] = Table A5, HeLa cells, saponin titrated + 5 pM EGFdianthin, read-out: IC50 nM (Activity)
[7] = Table A5, read-out: IC50 nM (hemolysis)
[8] = Table A6, read-out: IC50 nM (hemolysis)
[9] = Table A6, A431 cells, saponin titrated + 5 pM EGFdianthin, read-out: IC50 nM (Activity)
[10] = saponin alone, read-out: IC50 toxicity
[11] = HeLa, + 5 pM EGFdianthin, read-out: IC50 endosomal escape enhancing activity
[12] = read-out: IC50 hemolytic activity
[13] = A431, + 5 pM EGFdianthin, read-out: IC50 endosomal escape enhancing activity

| Compound | CMC [1] [µM] | IC50 (HeLa cells; [4]) [nM] | IC50 (A431 cells; [5]) [nM] | IC50 [2, 6] [nM] | IC50 (human red blood cells; [7]) [nM] | IC50 (human red blood cells; [8]) [nM] | IC50 [3, 9] [nM] | IC50 (A431 cells; [10]) [nM] | IC50 [2, 11] [nM] | IC50 (human red blood cells; [12]) [nM] | IC50 [3, 13] [nM] | IC50 (HeLa cells; [10]) | IC50 ([2]; Table A12, HeLa cells, + 5 pM EGFdianthin, read-out: IC50 nM (Activity)) [nM] | IC50 (HeLa cells; Table A12, read-out: IC50 nM (Toxicity)) [nM] |
| --- | --- | --- | --- | --- | --- | --- | --- | --- | --- | --- | --- | --- | --- | --- |
| CC1OC(OC2C(C)OC(OC(=O)[C@]34CCC(C)(C)CC3C3=CCC5[C@@]6(C)CC[C@H](OC7OC(C(=O)NC(C)(CO)CO)C(O)C(OC8OCC(O)C(O)C8O)C7OC7OC(CO)C(O)C(O)C7O)[C@@](C)(CO)C6CC[C@@]5(C)[C@]3(C)C[C@H]4O)C(OC3OC(C)C(OC4OCC(O)C(OC5OC(CO)C(O)C(O)C5O)C4O)C(O)C3O)C2O)C(O)C(OC2OCC(O)C(O)C2O)C1O (stereo partly drawn) [SO1861-(Ald-OH)-(Ac—OH)-(Glu-AMPD)] | 120 ± 12 | > 100000 | > 100000 | > 20000 | > 1e+06 | > 1e+06 | > 20000 | – | – | – | – | – | – | – |
| CC(=O)OC1C(C)OC(OC2C(C)OC(OC(=O)[C@]34CCC(C)(C)CC3C3=CCC5[C@@]6(C)CC[C@H](OC7OC(C(=O)O)C(O)C(OC8OCC(O)C(O)C8O)C7OC7OC(CO)C(O)C(O)C7O)[C@@](C)(CO)C6CC[C@@]5(C)[C@]3(C)C[C@H]4O)C(OC3OC(C)C(OC4OCC(O)C(OC5OC(CO)C(O)C(O)C5O)C4O)C(O)C3O)C2O)C(O)C1OC1OCC(O)C(O)C1O (stereo partly drawn) [SO1861-Ald-OH] | 135 ± 14 | > 100000 | – | – | 30000 | 30000 | – | 7000 | 600 | 30000 | 600 | – | – | – |
| CC1OC(OC2C(C)OC(OC(=O)[C@]34CCC(C)(C)CC3C3=CCC5[C@@]6(C)CC[C@H](OC7OC(C(=O)NC(C)(CO)CO)C(O)C(OC8OCC(O)C(O)C8O)C7OC7OC(CO)C(O)C(O)C7O)[C@@](C)(C=O)C6CC[C@@]5(C)[C@]3(C)C[C@H]4O)C(OC3OC(C)C(OC4OCC(O)C(OC5OC(CO)C(O)C(O)C5O)C4O)C(O)C3O)C2O)C(O)C(OC2OCC(O)C(O)C2O)C1O (stereo partly drawn) [SO1861-(Ac—OH)-(Glu-AMPD)] | 90 ± 10 | > 100000 | > 100000 | – | 140000 | 140000 | – | – | 3000 | 140000 | 3000 | – | – | – |
| QS21 [reference compound] | – | – | – | 200 | – | – | – | – | 200 | – | 90 | 6000 nM and 10000 nM | 200 | – |
| CC1OC(OC2C(C)OC(OC(=O)C34CCC(C)(C)CC3C3=CCC5C6(C)CCC(OC7OC(C(=O)NC(C)(CO)CO)C(O)C(OC8OCC(O)C(O)C8O)C7OC7OC(CO)C(O)C(O)C7O)C(C)(C=NNC(=O)CCCCCN7C(=O)C=CC7=O)C6CCC5(C)C3(C)CC4O)C(OC3OC(C)C(OC4OCC(O)C(OC5OC(CO)C(O)C(O)C5O)C4O)C(O)C3O)C2O)C(O)C(OC2OCC(O)C(O)C2O)C1O (stereo not drawn) [SO1861-(Ald-EMCH)-(Ac—OH)-(Glu-AMPD)] | – | > 100000 | > 100000 | > 20000 | > 1e+06 | > 1e+06 | > 20000 | – | – | – | – | – | – | – |
| CC1OC(OC2C(C)OC(OC(=O)[C@]34CCC(C)(C)CC3C3=CCC5[C@@]6(C)CC[C@H](OC7OC(C(=O)O)C(O)C(OC8OCC(O)C(O)C8O)C7OC7OC(CO)C(O)C(O)C7O)[C@@](C)(C=O)C6CC[C@@]5(C)[C@]3(C)C[C@H]4O)C(OC3OC(C)C(OC4OCC(O)C(OC5OC(CO)C(O)C(O)C5O)C4O)C(O)C3O)C2O)C(O)C(OC2OCC(O)C(O)C2O)C1O (stereo partly drawn) [SO1861-Ac—OH] | 350 ± 35 | – | – | – | – | – | – | 2000 | 1000 | – | 800 | 10000 nM | – | – |
| CC[C@H](C)[C@H](C[C@H](O)CC(=O)OC1C(C)OC(OC(=O)[C@]23CCC(C)(C)CC2C2=CCC4[C@@]5(C)CC[C@H](OC6OC(C(=O)O)C(O)C(OC7OCC(O)C(O)C7O)C6OC6OC(CO)C(O)C(O)C6O)[C@@](C)(/C=N/NC(=O)CCCCCN6C(=O)C=CC6=O)C5CC[C@@]4(C)[C@]2(C)C[C@H]3O)C(OC2OC(C)C(OC3OCC(O)C(OC4OCC(O)(CO)C4O)C3O)C(O)C2O)C1O)OC(=O)C[C@@H](O)C[C@H](OC1OC(CO)C(O)C1O)[C@@H](C)CC (stereo partly drawn) [QS21-Ald-EMCH] | – | – | – | – | – | – | – | – | 900 | – | 900 | – | – | > 30000 |
| CC1OC(OC2C(C)OC(OC(=O)[C@]34CCC(C)(C)CC3C3=CCC5[C@@]6(C)CC[C@H](OC7OC(C(=O)NCCN8C(=O)C=CC8=O)C(O)C(OC8OCC(O)C(O)C8O)C7OC7OC(CO)C(O)C(O)C7O)[C@@](C)(C=O)C6CC[C@@]5(C)[C@]3(C)C[C@H]4O)C(OC3OC(C)C(OC4OCC(O)C(OC5OC(CO)C(O)C(O)C5O)C4O)C(O)C3O)C2O)C(O)C(OC2OCC(O)C(O)C2O)C1O (stereo partly drawn) [SO1861-(Glu-AEM)-(Ac—OH)] | 90 ± 10 | > 100000 | > 100000 | – | 100000 | 100000 | – | – | 8000 | 100000 | 4000 | – | – | – |
| CC1OC(OC2C(C)OC(OC(=O)[C@]34CCC(C)(C)CC3C3=CCC5[C@@]6(C)CC[C@H](OC7OC(C(=O)NCCN8C(=O)C=CC8=O)C(O)C(OC8OCC(O)C(O)C8O)C7OC7OC(CO)C(O)C(O)C7O)[C@@](C)(CO)C6CC[C@@]5(C)[C@]3(C)C[C@H]4O)C(OC3OC(C)C(OC4OCC(O)C(OC5OC(CO)C(O)C(O)C5O)C4O)C(O)C3O)C2O)C(O)C(OC2OCC(O)C(O)C2O)C1O (stereo partly drawn) [SO1861-(Glu-AEM)-(Ald-OH)-(Ac—OH)] | >150 | > 100000 | > 100000 | > 20000 | > 1e+06 | > 1e+06 | > 20000 | – | – | – | – | – | – | – |
| CC1OC(OC2C(C)OC(OC(=O)C34CCC(C)(C)CC3C3=CCC5C6(C)CCC(OC7OC(C(=O)O)C(O)C(OC8OCC(O)C(O)C8O)C7OC7OC(CO)C(O)C(O)C7O)C(C)(C=NNC(=O)CCCCCN7C(=O)C=CC7=O)C6CCC5(C)C3(C)CC4O)C(OC3OC(C)C(OC4OCC(O)C(OC5OC(CO)C(O)C(O)C5O)C4O)C(O)C3O)C2O)C(O)C(OC2OCC(O)C(O)C2O)C1O (stereo not drawn) [SO1861-(Ald-EMCH)-(Ac—OH)] | >300 | > 100000 | > 100000 | – | > 1e+06 | > 1e+06 | – | – | 8000 | – | 10000 | – | – | – |
| CC(=O)OC1C(C)OC(OC2C(C)OC(OC(=O)[C@]34CCC(C)(C)CC3C3=CCC5[C@@]6(C)CC[C@H](OC7OC(C(=O)NC(C)(CO)CO)C(O)C(OC8OCC(O)C(O)C8O)C7OC7OC(CO)C(O)C(O)C7O)[C@@](C)(CO)C6CC[C@@]5(C)[C@]3(C)C[C@H]4O)C(OC3OC(C)C(OC4OCC(O)C(OC5OC(CO)C(O)C(O)C5O)C4O)C(O)C3O)C2O)C(O)C1OC1OCC(O)C(O)C1O (stereo partly drawn) [SO1861-(Ald-OH)-(Glu-AMPD)] | 50 ± 5 | > 100000 | > 100000 | – | – | – | – | – | 4000 | – | 4000 | – | – | – |
| CC1OC(OC2C(C)OC(OC(=O)[C@]34CCC(C)(C)CC3C3=CCC5[C@@]6(C)CC[C@H](OC7OC(C(=O)O)C(O)C(OC8OCC(O)C(O)C8O)C7OC7OC(CO)C(O)C(O)C7O)[C@@](C)(CO)C6CC[C@@]5(C)[C@]3(C)C[C@H]4O)C(OC3OC(C)C(OC4OCC(O)C(OC5OC(CO)C(O)C(O)C5O)C4O)C(O)C3O)C2O)C(O)C(OC2OCC(O)C(O)C2O)C1O (stereo partly drawn) [SO1861-(Ald-OH)-(Ac—OH)] | >280 | > 100000 | > 100000 | – | 200000 | 200000 | – | – | – | 200000 | – | – | – | – |
